According to patent US7112565B2, “Stabilized pharmaceutical composition in lyophilized form” (Astellas Pharma Inc., priority 1999, dated 2006):

Assays:
[1] = Test Example 3: dependence of stability on the amount of lactose added; assay type: physicochemical
Protocol: (§1) 10 mg of Compound (II) and, as a stabilizer, 100 mg of lactose or 9 mg of sodium chloride were dissolved completely in 1 ml of water. The resulting solutions were lyophilized and maintained at 70° C. in glass vials. Nine days after, the resulting compositions were tested on their appearance, the residual amount of Compound (II), and others. As a control, used was a solution of Compound (II) without any stabilizers.
Dependence of the Stability of Lyophilized Compositions of Compound (II) upon the Amount of Lactose Added
Tests were carried out in the same manner as in Test example 1 except that 20 mg, 50 mg, 100 mg or 200 mg of lactose were added as a stabilizer. […] Incidentally, it took 15 seconds to reconstitute the compositions in 1 ml of water.

[2] = Test Example 4: stability of lyophilized compositions of 200 mg of lactose and Compound (II) in vial; assay type: physicochemical
Protocol: as §1
Stability of Lyophilized Compositions of 200 mg of Lactose and Compound (II) in Vial
Tests were carried out in the same manner as in Test Example 1 except that 12.5 mg, 25 mg, 50 mg, 75 mg or 100 mg of Compound (II) were used with 200 mg of lactose. […] Regarding all the compositions, their appearance is a white mass, the time for reconstitutional dissolution was 15 seconds, and the color and the clarity of reconstituted solutions of the compositions were colorless and transparent.

[3] = 10 mg Compound (II) + 20 mg lactose, 0 hours
[4] = 10 mg Compound (II) + 20 mg lactose, after 3 months at 40° C. and 75% humidity
[5] = 10 mg Compound (II) + 20 mg lactose, after 9 days at 70° C.
[6] = 10 mg Compound (II) + 50 mg lactose, 0 hours
[7] = 10 mg Compound (II) + 50 mg lactose, after 3 months at 40° C. and 75% humidity
[8] = 10 mg Compound (II) + 50 mg lactose, after 9 days at 70° C.
[9] = 10 mg Compound (II) + 100 mg lactose, 0 hours
[10] = 10 mg Compound (II) + 100 mg lactose, after 3 months at 40° C. and 75% humidity
[11] = 10 mg Compound (II) + 100 mg lactose, after 9 days at 70° C.
[12] = 10 mg Compound (II) + 200 mg lactose, 0 hours
[13] = 10 mg Compound (II) + 200 mg lactose, after 3 months at 40° C. and 75% humidity
[14] = 10 mg Compound (II) + 200 mg lactose, after 9 days at 70° C.
[15] = 12.5 mg Compound (II) + 200 mg lactose, 0 hours
[16] = 12.5 mg Compound (II) + 200 mg lactose, after 3 months at 40° C. and 75% humidity
[17] = 12.5 mg Compound (II) + 200 mg lactose, after 9 days at 70° C.
[18] = 12.5 mg Compound (II) + 200 mg lactose, after 21 days at 60° C.
[19] = 25 mg Compound (II) + 200 mg lactose, 0 hours
[20] = 25 mg Compound (II) + 200 mg lactose, after 9 days at 70° C.
[21] = 25 mg Compound (II) + 200 mg lactose, after 21 days at 60° C.
[22] = 50 mg Compound (II) + 200 mg lactose, 0 hours
[23] = 50 mg Compound (II) + 200 mg lactose, after 3 months at 40° C. and 75% humidity
[24] = 50 mg Compound (II) + 200 mg lactose, after 9 days at 70° C.
[25] = 50 mg Compound (II) + 200 mg lactose, after 21 days at 60° C.
[26] = 75 mg Compound (II) + 200 mg lactose, 0 hours
[27] = 75 mg Compound (II) + 200 mg lactose, after 3 months at 40° C. and 75% humidity
[28] = 75 mg Compound (II) + 200 mg lactose, after 9 days at 70° C.
[29] = 75 mg Compound (II) + 200 mg lactose, after 21 days at 60° C.
[30] = 100 mg Compound (II) + 200 mg lactose, 0 hours
[31] = 100 mg Compound (II) + 200 mg lactose, after 3 months at 40° C. and 75% humidity
[32] = 100 mg Compound (II) + 200 mg lactose, after 9 days at 70° C.
[33] = 100 mg Compound (II) + 200 mg lactose, after 21 days at 60° C.
[34] = all compositions: 12.5 to 100 mg Compound (II) + 200 mg lactose

## CCCCCOc1ccc(-c2cc(-c3ccc(C(=O)NC4CC(O)C(O)NC(=O)C5C(O)C(C)CN5C(=O)C(C(O)CC(N)=O)NC(=O)C(C(O)C(O)c5ccc(O)c(OS(=O)(=O)[O-])c5)NC(=O)C5CC(O)CN5C(=O)C(C(C)O)NC4=O)cc3)no2)cc1.[Na+] (centres unmarked) [Compound (II)]
[1]; [3]
  Clarity of reconstituted solution in 1 ml of water: Clear
  Color of reconstituted solution in 1 ml of water: Colorless
  Residual amount: 100.0%
  Total impurities: 3.44%
  Water content: 1.2%
  pH of reconstituted solution in 1 ml of water: 6.09
[1]; [4]
  Clarity of reconstituted solution in 1 ml of water: Clear
  Color of reconstituted solution in 1 ml of water: Colorless
  Residual amount: 100.0%
  Total impurities: 3.99%
  pH of reconstituted solution in 1 ml of water: 6.57
[1]; [5]
  Clarity of reconstituted solution in 1 ml of water: Not clear
  Color of reconstituted solution in 1 ml of water: White
  Residual amount: 88.09%
  Total impurities: 12.3%
  pH of reconstituted solution in 1 ml of water: 3.03
[1]; [6]
  Clarity of reconstituted solution in 1 ml of water: Clear
  Color of reconstituted solution in 1 ml of water: Colorless
  Residual amount: 100.0%
  Total impurities: 3.32%
  Water content: 0.5%
  pH of reconstituted solution in 1 ml of water: 6.57
[1]; [7]
  Appearance: White mass
  Clarity of reconstituted solution in 1 ml of water: Clear
  Color of reconstituted solution in 1 ml of water: Colorless
  Residual amount: 99.8%
  Total impurities: 4.21%
[1]; [8]
  Clarity of reconstituted solution in 1 ml of water: Clear
  Color of reconstituted solution in 1 ml of water: Colorless
  Residual amount: 96.7%
  Total impurities: 7.37%
  pH of reconstituted solution in 1 ml of water: 5.56
[1]; [9]
  Clarity of reconstituted solution in 1 ml of water: Clear
  Color of reconstituted solution in 1 ml of water: Colorless
  Residual amount: 100.0%
  Total impurities: 3.43%
  Water content: 0.3%
  pH of reconstituted solution in 1 ml of water: 6.58
[1]; [10]
  Appearance: White mass
  Color of reconstituted solution in 1 ml of water: Colorless
  Residual amount: 99.6%
  Total impurities: 3.96%
  pH of reconstituted solution in 1 ml of water: 5.80
[1]; [11]
  Clarity of reconstituted solution in 1 ml of water: Clear
  Color of reconstituted solution in 1 ml of water: Colorless
  Residual amount: 96.7%
  Total impurities: 7.08%
  pH of reconstituted solution in 1 ml of water: 6.08
[1]; [12]
  Clarity of reconstituted solution in 1 ml of water: Clear
  Color of reconstituted solution in 1 ml of water: Colorless
  Residual amount: 100.0%
  Total impurities: 3.40%
  Water content: 0.3%
  pH of reconstituted solution in 1 ml of water: 6.78
[1]; [13]
  Appearance: White mass
  Clarity of reconstituted solution in 1 ml of water: Clear
  Color of reconstituted solution in 1 ml of water: Colorless
  Residual amount: 99.6%
  Total impurities: 4.35%
  pH of reconstituted solution in 1 ml of water: 5.36
[1]; [14]
  Clarity of reconstituted solution in 1 ml of water: Clear
  Color of reconstituted solution in 1 ml of water: Colorless
  Residual amount: 96.1%
  Total impurities: 7.30%
  pH of reconstituted solution in 1 ml of water: 5.70
[1]; 10 mg Compound (II) + 20, 50, 100 or 200 mg lactose
  Time to reconstitute the compositions in 1 ml of water: 15 s
[1]; 10 mg of Compound (II) and various amount of lactose
  Stability of lyophilized compositions (conclusion from Table 3): no problem in their stability
[2]; [15]
  Residual amount: 100.0%
  Total impurities: 2.24%
  Water content: 1.3%
  pH of reconstituted solution in 5 ml of purified water: 6.63
[2]; [16]
  Residual amount: 99.6%
  Total impurities: 2.71%
  pH of reconstituted solution in 5 ml of purified water: 6.08
[2]; [17]
  Residual amount: 98.1%
  Total impurities: 3.95%
  pH of reconstituted solution in 5 ml of purified water: 6.15
[2]; [18]
  Residual amount: 97.5%
  Total impurities: 3.75%
  pH of reconstituted solution in 5 ml of purified water: 6.31
[2]; [19]
  Residual amount: 100.0%
  Total impurities: 2.25%
  Water content: 1.1%
  pH of reconstituted solution in 5 ml of purified water: 6.37
[2]; 25 mg Compound (II) + 200 mg lactose, after 3 months at 40° C. and 75% humidity
  Total impurities: 2.68%
[2]; [20]
  Residual amount: 99.3%
  Total impurities: 4.03%
  pH of reconstituted solution in 5 ml of purified water: 6.07
[2]; [21]
  Residual amount: 98.2%
  Total impurities: 3.49%
  pH of reconstituted solution in 5 ml of purified water: 6.11
[2]; [22]
  Residual amount: 100.0%
  Total impurities: 2.25%
  Water content: 1.2%
  pH of reconstituted solution in 5 ml of purified water: 6.26
[2]; [23]
  Residual amount: 100.5%
  Total impurities: 2.74%
  pH of reconstituted solution in 5 ml of purified water: 6.00
[2]; [24]
  Residual amount: 97.9%
  Total impurities: 3.95%
  pH of reconstituted solution in 5 ml of purified water: 5.99
[2]; [25]
  Residual amount: 97.3%
  pH of reconstituted solution in 5 ml of purified water: 6.00
[2]; [26]
  Residual amount: 100.0%
  Total impurities: 2.28%
  Water content: 0.9%
  pH of reconstituted solution in 5 ml of purified water: 6.13
[2]; [27]
  Residual amount: 99.0%
  Total impurities: 2.76%
  pH of reconstituted solution in 5 ml of purified water: 6.04
[2]; [28]
  Residual amount: 98.1%
  Total impurities: 4.14%
  pH of reconstituted solution in 5 ml of purified water: 5.95
[2]; [29]
  Total impurities: 3.83%
  pH of reconstituted solution in 5 ml of purified water: 5.96
[2]; [30]
  Residual amount: 100.0%
  Total impurities: 2.46%
  Water content: 1.3%
  pH of reconstituted solution in 5 ml of purified water: 6.03
[2]; [31]
  Residual amount: 99.5%
  Total impurities: 2.79%
[2]; [32]
  Residual amount: 97.8%
  Total impurities: 4.15%
  pH of reconstituted solution in 5 ml of purified water: 5.92
[2]; [33]
  Residual amount: 96.7%
  Total impurities: 3.92%
  pH of reconstituted solution in 5 ml of purified water: 5.88
[2]; [34]
  Appearance: white mass
  Clarity of reconstituted solutions: transparent
  Color of reconstituted solutions: colorless
  Time for reconstitutional dissolution: 15 s
